Laboratory results published in patent US20250198988A1 (priority 2012, published 2025).

Columns and labels:
[1] = tested on: blood specimen involving acute myeloid leukemia (AML); conditions: live cells from blood specimen, apoptosis by OD at 600 nm
Method: In the MiCK assay cancer cells from a patient are placed in a suspension of a given concentration of single cells or small cell clusters and allowed to adjust to conditions in multiple wells of a microtiter plate. […] The optical density of each well is then measured periodically, typically every few minutes, for a period of typically a few days. As a cell undergoes apoptosis-related blebbing, its optical density increases in a nearly linear fashion.
The assay may proceed by selecting an anti-cancer drug candidate and selecting at least one known cancer cell type on which to test the drug. The cancer cells may be suspended as a single-cell suspension in culture medium, such as RPMI. As used herein, a “single cell suspension” is a suspension of one or more cells in a liquid in which the cells are separated as individuals or in small clumps of 50 cells or fewer. […]
Suspended cells may be tested by placing samples in wells of a spectrophotometric plate. The cells may be suspended at any concentration such that during the spectrophotometric measurements of OD, the beam of the plate reader normally passes through the layer of cells. […]
The drug candidate and any control drugs or other control samples may be added to the wells after the adjustment period. […] Although many drug candidates may be water-soluble, drug candidates that are not readily soluble in water may also be tested.

[2] = tested on: solid tumor specimen involving lung cancer metastases; assay: MiCK assay of apoptosis on patient solid tumor specimen (Appendix A report); type: cell-based; conditions: live cells from solid tumor specimen, apoptosis by OD at 600 nm
From the text: Such candidates may be mixed with any appropriate carrier.
Spectrophotometric data may be converted to kinetic units.
Kinetic units may be determined as follows:
KU=(VmaxDrug Treated−Vmaxcontrol)×60X y/(ODcell−ODblank).
Appendix A is a report based on tests conducted on a solid tumor specimen involving lung cancer metastases.

Compound | maximum kinetic units (KU) [1] | maximum kinetic units (KU) [2]
O=P1(N(CCCl)CCCl)NCCCO1 (centres unmarked) [Cytoxan, cyclophosphamide] | 7.4 KU | 
CC(=O)O[C@H]1C(=O)[C@@]2(C)[C@H]([C@H](OC(=O)c3ccccc3)[C@]3(O)C[C@H](OC(=O)[C@H](O)[C@@H](NC(=O)c4ccccc4)c4ccccc4)C(C)=C1C3(C)C)[C@]1(OC(C)=O)CO[C@@H]1C[C@@H]2O [paclitaxel] |  | 7.6 KU
